# Assays:
# DCAMKL-1 = assay: siRNA knockdown of DCAMKL-1 in SW480 cells, real-time RT-PCR and Western blot; assay type: cell-based, human
# Experimental: Cell culture. HCT116, HCT116 p21^−/− and SW480 human colon adenocarcinoma cell lines were obtained from the American Type Culture Collection (ATCC) and grown in Dulbecco's modified eagle's medium (DMEM) supplemented with 10% fetal bovine serum and 100 U/mL penicillin-streptomycin in a humidified chamber at 37° C. with 5% CO2.
# Silencer RNA. DCAMKL-1 siRNA (si-DCAMKL-1) sequence targeting the coding region of DCAMKL-1 (Accession # NM_004734 (SEQ ID NO:1)) ([…] (SEQ ID NO:3)) and scrambled control siRNAs (si-Scr) not matching any of the human genes were obtained (Ambion Inc., Austin, Tex.) and transfected using Transfectol™ (Ambion Inc.).
# Real-time reverse transcription-PCR analyses. Total RNA isolated either from cells or from human colon cancer cell tumor xenograft samples was subjected to reverse transcription with Superscript™ II RNase H—Reverse Transcriptase and random hexanucleotide primers (Invitrogen, Carlsbad, Calif.). The cDNA was subsequently used to perform Real-time PCR by SYBR chemistry (SYBR® Green I; Molecular Probes) for specific transcripts using gene specific primers and Jumpstart Taq DNA polymerase (Sigma-Aldrich, St. Louis, Mo.). […] The changes in mRNA were expressed as fold change relative to control with ±SEM value.
# miRNA analysis. Total miRNA was isolated using mirVana™ miRNA isolation kit (Ambion Inc.). Total miRNA isolated either from cells or from human colon cancer cell tumor xenograft samples were subjected to reverse transcription with Superscript™ II RNase H—Reverse Transcriptase and random hexanucleotide primers (Invitrogen, Carlsbad, Calif.). The cDNA was subsequently used to perform Real-time PCR by SYBR chemistry (SYBR® Green I; Molecular Probes) for pri-let-7a transcript using specific primers and Jumpstart Taq DNA polymerase (Sigma-Aldrich, St. Louis, Mo.). […] The changes in pri-miRNA were expressed as fold change relative to control with ±SEM value. Primers used are: […]
# Western Blot analysis. HCT116 and SW480 cells were cultured in a 6 well plates to 40% confluency and were transfected with si-DCAMKL-1 or si-Scr for 72 h. Cells or the tumor xenograft samples were lysed and the concentration of protein was determined by BCA protein assay kit (Pierce Biotechnology Inc., Rockford, Ill.). Forty μg of the protein was size separated in a 7.5-15% SDS polyacrylamide gel and transferred onto a nitrocellulose membrane with a semidry transfer apparatus (Amersham-Pharmacia, Piscataway, N.J.). The membrane was blocked in 5% non-fat dry milk for 1 h and probed overnight with a rabbit anti-DCAMKL-1 antibody (Abcam Inc., Cambridge, Mass.) or with rabbit anti-c-Myc antibody (Santa Cruz). Subsequently, the membrane was incubated with anti-rabbit or anti-goat IgG horseradish peroxidase-conjugated antibodies (Amersham-Pharmacia) for 1 h at room temperature. The 82 kDa DCAMKL-1 and 49 kDa c-Myc proteins were detected using ECL™ Western Blotting detection reagents (Amersham-Pharmacia). Actin (43 kDa), used as loading control was identified using a goat polyclonal IgG (Santa Cruz Biotechnology Inc., Santa Cruz, Calif.).
# let-7a miRNA = assay: pLet7a-Luc luciferase reporter gene assay in SW480 cells; assay type: cell-based, human; conditions: normalized to Renilla luciferase
# Experimental: Luciferase reporter gene assay. pLet7a-Luc reporter vector contains a let-7a miRNA specific binding site at the 3′UTR of the firefly (Photinus pyralis) luciferase gene obtained from Signosis Inc (FIG. 26). HCT116 and SW480 cells were transfected with the pLet7a-Luc reporter vector, Renilla luciferase expressing plasmid pRL-TK (Promega) along with DCAMKL-1 or scrambled siRNA using Transfectol™ (Ambion Inc.). Luciferase activity was determined as per the manufacturer's instructions (Dual-Luciferase Reporter Assay System; Promega) using a Monolight 2010 luminometer (Analytical Luminescence Laboratory, San Diego, Calif.) as described earlier [Stadler et al., 2008; Sossey-Alaoui et al., 1999]. The activity, normalized to Renilla Luciferase activity, is presented as relative luciferase units relative to control with ±SEM values. Assays were performed in triplicate wells and experiments were repeated 3 times.
# [1] = real-time RT-PCR, compared to controls
# Sequence of DCAMKL-1 (O15075 other isoform, or with tags, fused parts or gaps): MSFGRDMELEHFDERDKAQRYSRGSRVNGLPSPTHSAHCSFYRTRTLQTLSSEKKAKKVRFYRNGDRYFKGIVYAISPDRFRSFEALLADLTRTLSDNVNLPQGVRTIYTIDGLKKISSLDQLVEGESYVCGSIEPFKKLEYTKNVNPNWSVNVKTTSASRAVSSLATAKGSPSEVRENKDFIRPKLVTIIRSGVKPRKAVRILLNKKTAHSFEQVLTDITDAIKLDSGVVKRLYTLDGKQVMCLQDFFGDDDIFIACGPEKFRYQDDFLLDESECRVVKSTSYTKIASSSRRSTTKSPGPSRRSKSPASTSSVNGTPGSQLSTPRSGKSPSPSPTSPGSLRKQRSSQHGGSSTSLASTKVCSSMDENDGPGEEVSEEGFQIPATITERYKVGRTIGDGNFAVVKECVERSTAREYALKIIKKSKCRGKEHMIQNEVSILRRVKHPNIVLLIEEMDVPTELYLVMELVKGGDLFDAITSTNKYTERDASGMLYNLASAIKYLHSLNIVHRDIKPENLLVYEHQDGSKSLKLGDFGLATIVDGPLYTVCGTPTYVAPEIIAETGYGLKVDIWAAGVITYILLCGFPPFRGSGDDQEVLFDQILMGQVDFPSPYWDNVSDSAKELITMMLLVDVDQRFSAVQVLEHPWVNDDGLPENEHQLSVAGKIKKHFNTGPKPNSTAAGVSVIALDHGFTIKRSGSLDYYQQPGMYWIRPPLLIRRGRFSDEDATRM
substance,measurement,setting,value
"si-DCAMKL-1: siRNA targeting the coding region of DCAMKL-1 (NM_004734), sequence GGGAGUGAGAACAAUCUAC (SEQ ID NO:3) (chemistry not given here; listed as Homo sapiens)",c-Myc mRNA and protein,DCAMKL-1,Reduction
same,reduction in Notch-1 mRNA,DCAMKL-1,> 50%
same,Notch-1 and cleaved Notch-1 protein,DCAMKL-1; Western blot,dose dependent reduction
same,DCAMKL-1 protein,"DCAMKL-1; Western blot, 72 h transfection",reduction
same,reduction in DCAMKL-1 mRNA expression,DCAMKL-1; real-time RT-PCR,> 70%
same,increase in pri-let-7a miRNA,DCAMKL-1; [1],4 fold
same,increase in pri-miR-144 miRNA,DCAMKL-1; [1],3 fold
same,luciferase activity (let-7a binding site at 3' UTR),let-7a miRNA,dose dependent reduction

# — patent US8936941B2, “Compositions useful for cancer detection and treatment, a cancer stem cell model, and methods of production and use thereof” (priority 2008, dated 2015)
